What was measured:
[1] = test system: CT DNA (EB-DNA adduct); test: Ethidium bromide (EB-DNA) competitive fluorescence assay; format: binding, calf; details: [DNA] = [EB] = 5 μM
Experimental: The binding affinity of the metal complexes towards CT DNA was evaluated using competitive fluorescence studies. CT DNA pretreated with ethidium bromide (EB) ([DNA] = [EB] = 5 μM) in Tris-HCl/NaCl buffer (pH = 7.2) was incubated with the complexes in concentrations of 0–90 μM. […] The quenching of EB-DNA adduct fluorescence was followed by monitoring the emission spectra in the wavelength range of 530–650 nm. Upon addition of the metal complexes to the EB-DNA adduct, the quenching binding constant (Kq) at λ = 585 nm is determined from the Stern-Volmer Equation (2):I0/I = 1 + Kq[Q](2) where I0 and I are the fluorescence intensities of EB-DNA in the […] of the metal complexes, respectively, [Q] is the concentration of the tested compounds, and Kq is the quenching constant calculated from the slope of the straight line obtained from plotting Io/I vs. [Q]. In addition, the apparent binding constant can be calculated from Equation (3):KEB[EB] = Kapp[Q](3) where KEB = 1 × 10^7 M^−1 [EB] is the ethidium bromide concentration (5 μM) and [Q] is the concentration of the quencher that provides a 50% intensity reduction of the initial EB-DNA adduct.

[2] = test system: human breast cancer (MCF7) cells; test: MTT cell viability assay, MCF7; format: cell-based; details: 24 h
Experimental: The cytotoxic effect of the Hapbim ligand and its complexes (1) and (2) on human breast cancer (MCF7), human colorectal cancer (Caco2), and human normal liver (THLE-2) cell lines was evaluated by the MTT assay. The cells were cultured in a 96-well plate (1 × 10^4 cells/well, 100 μL/well) containing DMEM medium provided with 10% fetal bovine serum, and 1% penicillin/streptomycin. Then, the cells were incubated at 37 °C for 24 h in a CO2 incubator under 5% CO2, 95% air until reaching a confluence of 70–80%. A 20 μL volume of each compound at different concentrations (from 5 to 400 μM for the cancer cell and from 600 to 1000 μM for the normal cells) was added and the cells were re-incubated for a further 24 h. After the incubation period, the cells were incubated again with 5 mg/mL of MTT for 4 h and then the medium was replaced with 100 μL DMSO and vortexed for 20 min. Finally, the absorbance was recorded at 570 nm using the microplate reader. […] To calculate the cell inhibition percentage, the following equation was used:% Cell inhibition = 100 − % cell viability ((At − Ab)/(Ac − Ab)) × 100%)(4) where At is the absorbance value of tested compound; Ab is the absorbance value of blank; Ac is the absorbance value of the control.

[3] = test system: MCF7 cells; test: DNA fragmentation (agarose gel), MCF7; format: cell-based, human; details: MCF7, 117.6 µg/mL, 4 h
Experimental: MCF7 and Caco2 cells were collected and genomic DNA was extracted using a Gene JET genomic DNA extraction kit following the manufacturer’s protocol (Thermo Scientific, #K0721). The extracted DNA samples were run on a 1.5% agarose gel at 50 V for 2 h and the fragment pattern was visualized by ethidium bromide staining under a UV transilluminator.

[4] = test system: Caco2 cells; test: Cell-cycle analysis by flow cytometry (PI), Caco2; format: cell-based, human; details: Caco2, 117.6 μg/mL, 24 h
Experimental: The Ru(III) complex (2) (117.6 μg/mL) was added to MCF7 and Caco2 cells at a confluence of 70–80% and incubated for 24 h (in a CO2 incubator). The cells were then digested with warm trypsin-EDTA + warm PBS-EDTA (0.25%) (500 + 500 μL) with incubation for 10 min at 37 °C. The mixture was centrifuged (450 rpm) for 5 min, then the supernatant was removed. The mixture was washed twice in warm PBS and the cell pellet was re-suspended in 500 µl warm PBS, centrifuged and the supernatant decanted. A volume of 150 μL PBS + 350 μL ice-cold 70% ethanol was added and incubated at 4 °C for 1 h to fix the cells. To remove ethanol, the mixture was centrifuged at 350 rpm for 10 min and then the supernatant was removed. The mixture was washed twice in warm PBS and the cells were re-suspended in 500 μL of warm PBS, centrifuged, and the supernatant was removed. The cells were resuspended in 100 μL PBS and stored at 4 °C for up to four days. In darkness, the cells were stained with 100 µL of propidium iodide (PI) solution + 50 µL RNase A solution (100 µg/mL) and incubated in darkness for 30–60 min. The stained cells were read in an Attune flow cytometer (Applied Bio-system, Foster City, CA, USA).

[5] = Median lethal dose (LD50) determination; format: in vivo; details: mice, intraperitoneal, mortality after 24 h
Experimental: The LD50 was estimated by the method of Enegide. Briefly, different concentrations of compound (2) was prepared by dissolving a certain weight in 2% DMSO and completed with sterile saline then vortexed and left for 5 min until the solution was clear. Three hundred µL of each concentration (10, 20, 40, 60, 80, 100, 120, and 140 mg/kg) was injected intraperitoneally to eight groups of mice (each one containing four mice), then mortality was recorded after 24 h.

[6] = test system: caspase 3 gene expression; test: Real-time qPCR of liver tissue, caspase 3; format: in vivo; details: liver tissue of EAC-bearing mice, vs untreated
Experimental: RNA was isolated from liver tissues using a RNeasy Mini kit. The integrity and purity of RNA were assessed by 1% agarose gel electrophoresis and nanodrop, respectively. The obtained RNA was reverse transcribed to yield cDNA using Quantiscript reverse transcriptase. Specific primers for Bax, caspase 3, and Bcl2 genes in addition to the housekeeping gene, β actin were designed by the Primer 3 web-based tool based on the published mice sequences (Table 5). Quantitative real-time PCR (qPCR) was performed using QuantiTect SYBR Green qPCR Master Mix in a StepOnePlus real-time PCR system and the melting curve condition and fold change calculation were done as previously described.

[7] = Solution stability by UV-Vis spectroscopy; format: physicochemical; details: 4% DMSO, 96% PBS, pH 7.4, over 24 h
Experimental: Stability studies of complexes (1) and (2) were carried out by UV-Vis spectroscopy in the 200–900 nm range. […] The electronic spectra for the solutions were measured over 24 h.

CS(C)=O.Nc1ccccc1-c1nc2ccccc2[nH]1.O.[Cl][Ru]([Cl])[Cl] [(2), [Ru(III)Cl3(DMSO)(Hapbim)]·H2O]
Kapp (apparent binding constant) ([1]; KEB = 1 × 10^7 M^−1): 1.72 ± 0.28 × 10^7 M^−1
Kq (quenching constant) ([1]; Stern-Volmer, 585 nm): 8.64 ± 0.15 × 10^3 M^−1
IC50 MCF-7 [2]: 118 ± 8 µg/mL
IC50 ([2]; read-out: IC50 MCF-7): 230 ± 10 µM
DNA fragmentation [3]: distinct DNA laddering
cells in G0/G1 phase [4]: 18%
cells in G2/M phase [4]: 62%
cells in S phase [4]: 20%
LD50 [5]: 60 mg/kg
caspase 3 mRNA level [6]: significant increases
solution stability (UV-Vis spectral change) [7]: changes in absorption bands near 288, 326, and 690 nm after 1 h
